According to US4638070A, “Heterocyclic amino-alcohol derivatives” (Continental Pharma, priority 1980, dated 1987):

What was measured:
[1] = Acute toxicity, oral, LD50 (Litchfield and Wilcoxon); conditions: mouse, in vivo, fasted male mice, confidence limits p=95% in brackets
Procedure: (1) The acute toxicity was determined on fasted male mice. The tested substances were orally administered and LD50 values (lethal dose for 50% of animals) were calculated according to the method of Litchfield and Wilcoxon (J. Pharmacol. exp. Ther. 96, 94-113, 1949). These LD50 values are given in mg/kg and also, when possible, with their confidence limits for p=95%.

[2] = system: unanaesthetized, hypertension-suffering rat; assay: Antihypertensive activity (systolic arterial pressure), oral; assay type: in vivo; conditions: 60 mg/kg, hypertensive rat, 3 hours
Procedure: (2) The antihypertensive activity was measured on unanaesthetized, hypertension-suffering rat. The tested substances were orally given at a rate of 60 mg/kg. The systolic arterial pressure was measured every 30 minutes for 2 hours before and for 3 hours after the tested product was given. Results are expressed as follows: […]
O: no reduction of arterial pressure.
+: reduction lower than 10 mm Hg.
++: reduction of 10 to 20 mm Hg.
+++: reduction higher than 20 mm Hg.

femoral artery = assay: Vasodilator activity, femoral artery (technique of perfused paw); assay type: in vivo; set-up: key: O: no action; +: slight activity; ++: effect equal to half the effect of papaverine; +++: effect equal to that of papaverine; ++++: effect higher than that of papaverine; conditions: intra-arterial, 30 mg/kg, anaesthetized dog, vs papaverine at same dose
Procedure: (3) The vasodilator activity was measured at the level of femoral artery on anaesthetized dog (technique of perfused paw). The tested substances were given intra-arterially at the rate of 30 mg/kg. Results are expressed with respect to papaverine tested at the same dose.
++: effect equal to half the effect of papaverine.
+++: effect equal to that of papaverine.
++++: effect higher than that of papaverine.

[3] = system: guinea-pig ileum (histamine contractions); assay: Antispasmodic activity in vitro, contractions caused by histamine; conditions: added 15 minutes before spasm-producing agent
Procedure: (§1) (4) The antispasmodic activity was measured in vitro, on guinea-pig ileum, the contractions of which were caused by histammne (Hist.), acetylcholine (Achol) or barium chloride (BaCl2). The tested products were added to perfusion bath 15 minutes before the spasm-producing agents.
(§2) The dose is given in micograms (μg) per ml of bath causing complete spasm inhibition.

[4] = system: guinea-pig ileum (acetylcholine contractions); assay: Antispasmodic activity in vitro, contractions caused by acetylcholine; conditions: added 15 minutes before spasm-producing agent
Procedure: as §1, §2

SMILES | LD50 [1] [mg/kg] | ANTIHYPERTENSIVE ACTIVITY [2] | VASODILATOR ACTIVITY (femoral artery) | ANTISPASMODIC ACTIVITY HIST. (dose causing complete spasm inhibition) [3] [μg per ml] | ANTISPASMODIC ACTIVITY ACHOL (dose causing complete spasm inhibition) [4] [μg per ml]
CC1Cc2cc(C(O)C(C)NCCCCc3ccccc3)ccc2O1 (stereo not shown) [No 70] | 285 | +++ (reduction higher than 20 mm Hg) | ++ | 1.7 | 1.7
Cc1ccc(CCCCNC(C)C(O)c2ccc3c(c2)CCCS3)cc1 (stereo not shown) [No 34] | ~4000 | +++ (reduction higher than 20 mm Hg) | +++ | 0.8 | 0.8
CC(NCCCOc1ccccc1)C(O)c1ccc2c(c1)CCCS2 (stereo not shown) [No 75] | > 4000 | +++ (reduction higher than 20 mm Hg) | +++ | 0.8 | 1.7
CC(C(O)c1ccc2c(c1)CCC2)N1CCC(Cc2ccccc2)CC1 (stereo not shown) [No 172] | 1900 | +++ (reduction higher than 20 mm Hg) | ++++ | 0.08 | 1.7
CC1Cc2cc(C(O)C(C)NCCOc3ccccc3)ccc2O1 (stereo not shown) [No 89] | 550 | +++ (reduction higher than 20 mm Hg) | +++ | 8.3 | 8.3
CC(NCCCSc1ccccc1)C(O)c1ccc2c(c1)CCCS2 (stereo not shown) [No 37] | > 4000 | +++ (reduction higher than 20 mm Hg) | +++ | 1.7 | 1.7
Cc1ccc(OCCNC(C)C(O)c2ccc3c(c2)CCCS3)cc1 (stereo not shown) [No 54] | > 4000 | ++ (reduction of 10 to 20 mm Hg) | +++ | 3.3 | 3.3
CC(NCCCc1ccccc1)C(O)c1ccc2c(c1)CCC2 (stereo not shown) [No 165] | 3800 | +++ (reduction higher than 20 mm Hg) | +++ | 1.7 | 1.7
CC(NCCCCc1ccc(Cl)cc1)C(O)c1ccc2c(c1)CCS2 (stereo not shown) [No 29] | 1750 | +++ (reduction higher than 20 mm Hg) | ++ | 1.7 | 1.7
CC(NCCCc1ccccc1)C(O)c1ccc2c(c1)CCS2 (stereo not shown) [No 57] | > 2000 | ++ (reduction of 10 to 20 mm Hg) | +++ | 1.7 | 1.7
CC1Cc2cc(C(O)C(C)NCCCCc3ccc(Cl)cc3)ccc2S1 (stereo not shown) [No 68] | < 500 | +++ (reduction higher than 20 mm Hg) | +++ | 3.3 | 0.8
CC(C)C(=O)OC(c1ccc2c(c1)CCS2)C(C)NCCCCc1ccccc1 (stereo not shown) [No 117] | 2200 | +++ (reduction higher than 20 mm Hg) | ++++ | 1.7 | 0.8
CC1Cc2cc(C(O)C(C)NCCOc3ccc(Cl)cc3)ccc2O1 (stereo not shown) [No 84] | 1200 | +++ (reduction higher than 20 mm Hg) | +++ | 8.3 | 3.3
CCCCSCCCNC(C)C(O)c1ccc2c(c1)CCCS2 (stereo not shown) [No 80] | 5000 | +++ (reduction higher than 20 mm Hg) | ++ | 0.8 | 1.7
CC(NCCCc1ccc(Cl)cc1)C(O)c1ccc2c(c1)CCCS2 (stereo not shown) [No 78] | 725 | +++ (reduction higher than 20 mm Hg) | ++++ | 0.8 | 1.7
CC(NCCCC(=O)c1ccc(F)cc1)C(O)c1ccc2c(c1)CCCS2 (stereo not shown) [No 102] | > 4000 | +++ (reduction higher than 20 mm Hg) | ++ | 0.8 | 0.3
CC(NCCCCc1ccc(Cl)cc1)C(O)c1ccc2c(c1)CCC2 (stereo not shown) [No 167] | ~270 | +++ (reduction higher than 20 mm Hg) | +++ | 0.8 | 0.8
CCCCCCCCNC(C)C(O)c1ccc2c(c1)CC(C)O2 (stereo not shown) [No 55] | 350 | +++ (reduction higher than 20 mm Hg) | +++ | 3.3 | 8.3
CC(NCCOc1ccccc1)C(O)c1ccc2c(c1)CCCCS2 (stereo not shown) [No 36] | > 4000 | +++ (reduction higher than 20 mm Hg) | +++ | 3.3 | 1.7
CC(NCCCSc1ccccc1)C(O)c1ccc2c(c1)CCCCS2 (stereo not shown) [No 39] | > 4000 | ++ (reduction of 10 to 20 mm Hg) | +++ | 1.7 | 0.8
CC1Cc2cc(C(O)C(C)NCCOc3ccc(Cl)cc3)ccc2S1 (stereo not shown) [No 58] | > 4000 | +++ (reduction higher than 20 mm Hg) | +++ | 1.7 | 1.7
CC1Cc2cc(C(O)C(C)NCCCC(=O)c3ccc(F)cc3)ccc2O1 (stereo not shown) [No 105] | ~360 | +++ (reduction higher than 20 mm Hg) | +++ | 3.3 | 3.3
CCC(=O)c1ccc(OCCNC(C)C(O)c2ccc3c(c2)CC(C)S3)cc1 (stereo not shown) [No 116] | > 4000 | ++ (reduction of 10 to 20 mm Hg) | ++ | 0.17 | 3.3
